Measurements reported in the METLIN SMRT retention time set (Domingo-Almenara et al. 2019).

Test: gradient 5% acetonitrile 3 min, to 50% in 2 min, to 85% in 15 min, held 3 min, 100 µL/min
Settings: column: Zorbax Extend-C18 2.1 x 50 mm; eluents: water / acetonitrile, 0.1% formic acid
Procedure, shortened: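 Each retention time is based on an adduct peak selected computationally and verified by manual inspection. Measurements used HPLC–quadrupole time-of-flight mass spectrometry in positive and negative ionization mode on mixtures of ~100 pure standards. Chromatography ran on a Zorbax Extend-C18 column (2.1 × 50 mm, 1.8 μm) at 100 μL/min with water and acetonitrile, each containing 0.1% formic acid, and dead and dwell volumes of 40 μL and 900 μL.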

SMILES	RP-LC retention time [s]
CCC(=O)Nc1ccc(CCc2nc3ccc(C(=O)NC4CC4)cc3[nH]2)cc1	582
Fc1ccc(CN2CCO[C@@H](COc3ccccn3)[C@@H]2c2ccccc2)c(F)c1	894
Cc1ccc(C2=NC3(CCN(C(C)C)CC3)NC(c3ccccc3O)C2)cc1 (configuration not stated)	612
O=C(Cn1ccn2nc(-c3ccc(F)cc3)c(CO)c2c1=O)Nc1ccc(Cl)cc1F	909
FC(F)(F)c1cnc(N2CCN(c3ccccc3)CC2)c(Cl)c1	1390
COc1ccc(C(=O)CSc2nnc3sc4ccccc4n23)cc1OC	768
COc1cccc(-n2c(N3CCC(C(=O)NCC4CC4)CC3)nc3ccsc3c2=O)c1	745
CCOC(=O)c1oc2ccccc2c1NC(=O)c1ccccc1S(C)(=O)=O	800
COC(=O)Cn1c(=O)c(=O)n(CC(=O)OC)c2ccccc21	640
COc1ccc(OC)c(CNC(=O)C2CCCN(c3ccc(=O)n(-c4ccc(F)cc4)n3)C2)c1 (configuration not stated)	812
O=C(NCc1ccc(F)cc1)c1nnc(-c2ccc(S(=O)(=O)N3CCCCC3)cc2)o1	1160
CCNC(=O)C1CCN(c2nc3ccc(-c4cccc(F)c4)nc3s2)CC1	905
CN(C)C[C@@H]1CN(C2CCOCC2)C[C@H]1NS(=O)(=O)c1ccc(C#N)cc1	524
Cc1oc(-c2[nH]ncc2C(=O)N2CCCC2)cc1S(=O)(=O)N1CCOCC1	619
CCSc1nc2ccc(NS(=O)(=O)c3cc(F)cc(F)c3)cc2s1	1050
Cc1cc(S(=O)(=O)N2CCc3c(c(-c4nnc(-c5ccc(F)cc5)o4)nn3C)C2)ccc1F	992
CC(C)(C)c1noc(-c2ccnc(-n3cnc(C(=O)NC4CCCC4)c3)c2)n1	1020
Cc1cc(N2CCCC2)nc(N2CCN(C(=O)c3ccc(-c4ccccc4)cc3)CC2)n1	813
Cc1cc(-c2c(C)sc(C)c2S(=O)(=O)N2CCN(c3cccc(Cl)c3)CC2)n[nH]1	1040
CCn1cc(-c2ccncc2)cc1C(=O)NCc1cc(C)ccc1C	705
CCc1noc(NC(C)=O)c1-c1ccc(C)c(S(=O)(=O)NC(C)C)c1	738
CCN(CC)c1cc2c(cc1NC(=O)COc1ccc(Cl)cc1)n(C)c(=O)c(=O)n2C	965

SMILES	RP-LC retention time [s]
COc1cccc(NC(=O)N2CCN(c3cnn4c(C)nnc4c3)CC2)c1	616
CCCN(CCC)S(=O)(=O)c1ccc(C(=O)Nc2nc(-c3ccc(F)cc3)cs2)cc1	1240
Cc1cccc(N2CCN(C(=O)C3CCN(c4cncnc4N(C)C)CC3)CC2)c1C	756
CCOc1ccc(N(C)S(=O)(=O)c2ccsc2C(=O)NCCCc2ccccc2)cc1	1210
CCc1onc(C)c1C1CCCN1C(=O)Nc1cc(C)ccc1OC (configuration not stated)	935
CC(C)n1cnc2cc(CNC(=O)Cc3ccc(F)cc3)ccc21	623
O=C(Nc1ccccc1F)C(=O)c1ccc[nH]1	858
COc1ccccc1OCC(=O)NCCN1CCN(c2ccccc2OC)CC1	574
CCCc1cc(N2CCN(C(=O)c3ccsc3)CC2)nc2nnc(C)n12	611
CCN(C(=O)Cc1c(C(=O)O)c(C)cn1C)c1ccccc1	722
c1coc(-c2nnc(Nc3nc4cc5c(cc4s3)OCO5)o2)c1	694
CCOc1cccc(CNC(=O)C2CCN(Cc3cn(C)c4ccccc34)CC2)c1	686
CC(NC(=O)c1cn(-c2cc(-c3nc(C(C)(C)C)no3)ccn2)cn1)c1ccccc1 (configuration not stated)	1100
Cc1c(C(=O)NC2CCCC2)cnn1-c1ccc(-c2nc(C3CC3)no2)cn1	999
Cc1ccc(S(=O)(=O)NCCc2cn(CC(C)C)c3ncccc23)cc1C	978
O=c1ccc(-c2ccc(Br)cc2)nn1Cc1nc(-c2cccs2)no1	1020
O=C(NC1CC(=O)N(C2CC2)C1)c1cc2ccccc2[nH]1 (configuration not stated)	638
Cc1ccc(Nc2c(-c3ccc(Br)cc3)nc3cnccn23)cc1	1100
CCn1cc(CCNC(=O)c2cc(F)ccc2Cl)c2cccnc21	729
COc1ccc(C2c3c(n(C)c4ccccc34)C(=O)N2CC(=O)N2CCN(c3ccccn3)CC2)cc1 (configuration not stated)	710
COc1ccc(-c2c(C)noc2NC(C)=O)cc1S(=O)(=O)NCc1ccc(C)o1	714
Cc1ccc(S(=O)(=O)N2CCCCC2)cc1-c1nnc(-c2ccc(Cl)cc2)o1	1250

SMILES	RP-LC retention time [s]
c1cc(-c2nc(-c3ccnc(N4CCOCC4)c3)no2)ccn1	718
O=c1c2sccc2n(Cc2nc(-c3ccc(C(F)(F)F)cc3)no2)c(=O)n1CCc1ccccc1	1270
CC1(C)C(=O)N(CC(=O)Nc2cccc(F)c2)c2ccccc21	886
CCN(CC)C(=O)c1ccc2c(c1)N(CC(=O)Nc1ccc(C(C)=O)cc1)C(=O)CO2	700
Cc1ccc(Cn2c(N3CCCC(C(=O)NCCC4=CCCCC4)C3)nc3ccsc3c2=O)cc1 (configuration not stated)	1150
O=C(NCC1CCCCC1)C1CCN(C(=O)c2ncn3c2COC(c2ccccc2)C3)CC1 (configuration not stated)	802
COc1ccc(-c2nocc2CCC(=O)O)cc1	712
O=C(NCc1nc(-c2ccc(N3CCCCC3)cc2)no1)c1cccs1	877
O=C1Nc2ccc(S(=O)(=O)N3CCN(c4ccccn4)CC3)cc2C1=C1CCCC1	662
O=C(NCCOc1cccc2cccnc12)c1cnn(-c2ccccc2)n1	623
Cc1ccc(CC(=O)N2CCC3(CC2)NC(=O)c2cccc(Cl)c2N3)cc1	812
Cc1ccc(C)c(N2CCN(C(=O)c3cn4ccc(C)cc4n3)CC2)c1	759
O=C(NCc1ccccc1C(F)(F)F)c1ccc2ncnc(N3CCCC3)c2c1	692
COC(=O)C1C(c2ccccc2)=NN(c2ccccc2)C1C(=O)OC (configuration not stated)	1090
COCCNC(=O)c1nnc(-c2ccc(S(=O)(=O)N3CCC(C)CC3)cc2)o1	838
CC(C)CC(=O)NCC(c1ccccc1Cl)c1c[nH]c2ccccc12 (configuration not stated)	984
Cc1nn(CC(=O)NCCN(C)C)c(=O)c2nc(-c3ccccc3)sc12	601
CCc1onc(C)c1C1CCCN1C(=O)Nc1ccc(OC)c(OC)c1 (configuration not stated)	796
CCOc1ccccc1N1CCN(Cc2nc3nc(C)cc(N4CCCC4)n3n2)CC1	627
Cn1nc2n(c1=O)CCC(NC(=O)c1n[nH]c3c1CC(C(C)(C)C)CC3)CC2 (configuration not stated)	724
Cc1cc(C)c2c(N(C)C)nc(C(=O)NCCN(C)C3CCCCC3)nc2n1	562
COc1ccc(-c2nnc(-c3ccc(C)c(S(=O)(=O)N4CCCCCC4)c3)o2)cc1	1150

SMILES	RP-LC retention time [s]
S=C1SCN(CCc2ccccc2)CN1CCc1ccccc1	1210
O=C(NC1CC1)c1ccc(OCC2CCN(C(=O)c3ccc(F)cc3F)CC2)cc1	804
Cc1nnc(N2CCC(C(=O)N3CCN(c4ccccn4)CC3)CC2)c2nn(-c3ccccc3)c(C)c12	569
Cc1ccsc1C(=O)N1CCC2(CC1)CC(N(C(=O)NC(C)C)C1CC1)CCO2 (configuration not stated)	798
Fc1ccc(Nc2c(-c3ccc(Cl)cc3)nc3cnccn23)cc1	963
COC(=O)c1ccccc1NC(=O)NCc1ccccc1	855
N#Cc1cccc(NC(=O)CN2C(=O)NC(c3ccc(Cl)cc3)C3=C2COC3=O)c1 (configuration not stated)	763
COc1cc2c3cc1Oc1c(OC)c(OC)cc4c1C(Cc1ccc(cc1)Oc1cc(ccc1O)CC3N(C)CC2)N(C)CC4 (configuration not stated)	579
CCOC(=O)c1ccccc1NC(=O)Cn1c(=O)n(-c2ccc(F)cc2)c(=O)c2c1cc(C)n2C	1010
Cc1ccc(-c2nnc(-c3cccnc3NCCCN3CCOCC3)o2)cc1	690
O=C(CSc1ccc(-n2ccnc2)nn1)N1CCc2ccccc21	578
Cc1cc2c(c(=O)n(-c3ccccc3)c(=O)n2CC(=O)N(C)c2ccccc2)n1C	806
Cc1ccc(C(C)NC(=O)c2cccc(C3CCCN(C(=O)NC(C)C)C3)c2)c(C)c1 (configuration not stated)	969
COc1ccc(S(=O)(=O)Nc2cc(-c3cn4cccc(C)c4n3)ccc2C)cc1C	707
Cc1nc2cccnc2n1C1CCN(C(=O)Nc2ccc(F)cc2)CC1	640
COc1ccc(-n2ncc3c(=O)n(Cc4nc(-c5ccc(C(F)(F)F)cc5)no4)cnc32)cc1	1090
CC(C)Oc1ccc(CN2CC(N(Cc3ccncc3)S(C)(=O)=O)C2)cc1	571
CCOC(=O)N1CCN(C(=O)Cc2c(C)nn(-c3nc(-c4ccc(F)cc4)cs3)c2C)CC1	1010
Cc1noc(C)c1CN1CCN(C(=O)c2nc3ccccc3s2)CC1	574
Cc1ccc2nc(-c3cccc(S(=O)(=O)N4CCCC4)c3)cn2c1	657
COc1cccc(NC(=O)C2CCCN(c3nnc4ccc(Cl)cn34)C2)c1 (configuration not stated)	774
